In US12616696B2, “Crystalline forms of (p)-3-chloro-4-((3,5-difluoropyridin-2-yl)methoxy)-2′-(2-(2-hydroxypropan-2-yl)pyrimidin-4-yl)-5′,6-dimethyl-2h-[1,4′-bipyridin]-2-one” (ACLARIS THERAPEUTICS, INC., priority 2020, dated 2026):
pEC50, pIC50: −log10 of the molar value.

Tests used:
physchem = settings: thermodynamic from solid; for solubility: 23 °C; for solubility at 1 h: 40 °C, Solubility at 40° C.
phospho-JNK = test: Phosphoprotein analysis in PMA-differentiated U937 cells: phospho-JNK/total JNK; assay type: cell-based; settings: Homo sapiens, U-937, read-out: pJNK/Total JNK EC50
Description: (§1) The JNK pathway leads to increased inflammation by boosting production of inflammatory cytokines. […] Classical p38 inhibitors block the phosphorylation of downstream substrates of p38 while elevating activity of parallel pathways such as JNK. Evaluation of the impact of different classes of p38 inhibitors on p38 and JNK pathway regulation was carried out using phospho-HSP27 and phosphor-JNK for the two pathways, respectively. Evaluation of the potency and efficacy of p38 inhibitors to impact phosphoprotein levels was carried out using the human U937 cell line. The U937 human pre-monocytic cell line was obtained from the American Type Culture Collection (Rockville, MD). These cells were differentiated to a monocytic/macrophage phenotype as described by Burnette (Burnette et al, (2009). SD0006: a potent, selective and orally available inhibitor of p38 MAP Kinase, Pharmacology 84(1):42-60). Suspension cells (approximately 0.5 million per milliliter in T75 cm^2 tissue culture flasks) were grown in RPMI containing 10% fetal bovine serum (FBS) plus antibiotics. On day one, phorbol 12-myristate 13-acetate (PMA, 20 ng/mL) was added to the culture flask and the cells were incubated overnight at 37° C./5% CO2. The cells were washed on day two by centrifuging and resuspending them in fresh media without PMA. […]

phospho-HSP27 = test: Phosphoprotein analysis in PMA-differentiated U937 cells: phospho-Hsp27/total Hsp27; assay type: cell-based; settings: Homo sapiens, U-937, read-out: pHSP27/Total HSP27 IC50
Description: as §1

in vitro = settings: 50 mg, Tmax (time interval where BAmax is recorded)
Description: Test System: The study was performed in the TNO dynamic, multi-compartmental in vitro system of the stomach and small intestine (tiny-TIM). The tiny-TIM system consists of a gastric compartment and one small intestinal compartment (FIG. 8). This compartment is composed of two glass units with a flexible silicone inner wall enclosing the luminal material. The space between the inner and outer walls is filled with water. Peristaltic mixing of the chyme is the result of alternate compression and relaxation of the flexible inner wall. The compartments are connected by peristaltic valve pumps that successively open and close, allowing the chyme to transit over time through the compartments. […] The set-points for gastrointestinal simulation are controlled and monitored by specific computer programs. […]
Filtration of released and dissolved/solubilized drug molecules from the intestinal lumen via a semi-permeable membrane unit (Fresenius plasmaFlux® P1dry) allowed the assessment of the so-called bio-accessible fraction, i.e. the fraction of the drug which is available for small intestinal absorption. […] The collected volume per time period was measured and sub-samples were taken, instantly diluted in 50% Acetonitrile in Milli-q water and stored at 2-10° C., protected from light, until analysis.

solubility (physchem; organic solvent or mixture, low solubility at RT): < 10000 µg/mL | solubility (physchem; water, Solubility at RT): < 6000 µg/mL | solubility at 1 h (physchem; organic solvent or mixture): > 9000 µg/mL | solubility at 1 h (physchem; water): < 6000 µg/mL | pEC50 (phospho-JNK): 6.93 | pIC50 (phospho-HSP27): 8.94 | Tmax (in vitro): 1 to 1.5 h
SMILES: Cc1cnc(-c2ccnc(C(C)(C)O)n2)cc1-n1c(C)cc(OCc2ncc(F)cc2F)c(Cl)c1=O (atropisomer, axis not shown; (P)) [Compound 49a, (P)-3-chloro-4-((3,5-difluoropyridin-2-yl)methoxy)-2′-(2-(2-hydroxypropan-2-yl)pyrimidin-4-yl)-5′,6-dimethyl-2H-[1,4′-bipyridin]-2-one]
